The values below come from PubChem BioAssay (NCI).

Several values for one entry are separate records, joined by “and”; a condition that tells them apart may be missing. Equal entries are not always repeated.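 Step 1: Grow cells in 96-well plates. Step 2: Expose to compound for 48 hours at 5 concentrations. Step 3: Interpolate endpoints linearly; if unreached, use highest concentration. GI50 marks 50% less growth. TGI denotes the concentration required for complete inhibition of growth.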

Common to all, as to assay: inhibition of tumour cell growth, NCI panel, 48 h
In assay [1] the test system is M14 melanoma.
The subject of assay [2] is SR leukemia.
Assay [3] has as its system SF-539 CNS.
In assay [4] the test system is HOP-62 NSCLC.
The subject of assay [5] is CCRF-CEM leukemia.
In assay [6] the test system is SK-OV-3 ovarian.
Assay [7] has as its system MALME-3M melanoma.
Assay [8] relates to SF-295 CNS.
The subject of assay [9] is HT29 colon.
Assay [10] has as its system UACC-257 melanoma.
Assay [11] has as its system BT-549 breast.
Assay [12] concerns DU-145 prostate.
Assay [13] concerns PC-3 prostate.
In assay [14] the test system is OVCAR-3 ovarian.
Assay [15] relates to SF-268 CNS.
For assay [16], the system named is HCC-2998 colon.

Regarding `CCSc1nc(N)c2c(-c3ccc(OC)c(OC)c3)c3c(nc2n1)CCCC3`, the TGI in assay [1], in assay [2], in [3], in [4], in assay [5] and in assay [6] was greater than 100 µM each time. The TGI in [7], in assay [8], in [9], in [10], in [11] and in assay [12] was greater than 100 µM throughout. Further, the TGI in assay [13], in assay [14] and in assay [15] was greater than 100 µM in each case.

For the compound `CCC(=O)Nc1ccc(N=Cc2cccc(Oc3ccccc3)c2)cc1`, the TGI is greater than 100 µM in [1]; 67.9 µM in assay [2]; 35.9 µM in assay [3]; greater than 100 µM in assay [4]; 63.9 µM in [5]; greater than 100 µM in assay [6]. The TGI in [7], in assay [8], in assay [9], in [11], in assay [12] and in [13] was greater than 100 µM in each case. For the same compound, the TGI in [14] and in [15] was greater than 100 µM each time.

In the case of `O=C1/C(=C/c2cccnc2)C(n2cccc2)c2c(Br)sc(Br)c21` (stereo unspecified), the TGI was 4.85 µM in [1]; 6.37 µM in assay [2]; 2.41 µM in assay [16]; 9.5 µM in assay [3]; 7.36 µM in assay [4]; 10.1 µM in assay [5]. In addition, the TGI came to 29.3 µM in assay [6]; 10.7 µM in assay [7]; 32 µM in assay [8]; 11.1 µM in assay [9]; 3.36 µM in assay [10]; 37.6 µM in assay [11]. The TGI worked out at 3.53 µM in assay [12], 4.86 µM in assay [13], 3.31 µM in [14] and 4.3 µM in assay [15].

Regarding `CC1C(=O)OC2CC[N+]3(CC(=O)c4ccc(Br)cc4)CC=C(COC(=O)C(C)(O)C1(C)O)C23` (stereo unspecified), the TGI in [16], in assay [3], in assay [4], in assay [5], in assay [6] and in assay [7] was greater than 375 µM throughout. The TGI in assay [8], in assay [9], in assay [10], in [14] and in assay [15] was greater than 375 µM in each case.

With `N#C[S-].[Nd+3].c1cnc2c(c1)ccc1cccnc12.c1cnc2c(c1)ccc1cccnc12.c1cnc2c(c1)ccc1cccnc12`, the TGI in assay [1] is 6.17 µM; in assay [2] it was greater than 100 µM; in [16] it was 20 µM; in assay [3], 14 µM; in assay [4] it was 20.6 µM; in [5], 3.85 µM. Besides, the TGI in assay [6] stood at 12.5 µM; in assay [7] it was 9.54 µM; in assay [8], 0.991 µM; in [9] it was 20.2 µM; in assay [14], 16.1 µM; in [15], 43 µM.

Take `Cc1cc(NC(=S)Nc2ccccc2)c(NC(=S)Nc2ccccc2)cc1C`: the TGI in [16] is greater than 57.6 µM; in [3], 50.6 µM; in assay [4], greater than 100 µM; in [5] it was greater than 74.9 µM; in [6], greater than 75 µM; in [7], greater than 100 µM. In addition, the TGI in assay [8] is 62.2 µM; in assay [9] it was greater than 100 µM; in assay [10], greater than 100 µM; in [14] it was 50.9 µM; in assay [15], greater than 100 µM.

For the compound `CC1=C(C)C(=O)O[C@@H]([C@](C)(O)[C@]2(O)CC[C@@]3(O)[C@@H]4C[C@H]5O[C@]56[C@@H](O)C=CC(=O)[C@]6(C)[C@H]4CC[C@]23C)C1`, the TGI in [16] is 5.76 µM; in assay [3], 6.13 µM; in assay [4], 11.4 µM and 14.6 µM; in assay [6] it was 14.7 µM and 20.4 µM; in [7], 2.27 µM and 2.66 µM; in assay [8], 19.5 µM. The TGI was 5.35 µM in assay [9]; 3.84 µM in assay [10]; 1.64 µM and 0.359 µM in assay [14]. In addition, the GI50 in assay [4] is 1.28 µM; in [7], 0.411 µM; in [14] it was 0.136 µM and 0.0594 µM; in assay [15], 1.3 µM and 0.381 µM.

Turning to `COc1cc2c(cc1OCCCOc1cc(-c3ccc(F)cc3)nc(C)n1)N=C[C@@H]1CCCN1C2=O`, the TGI was determined as 29.3 µM in assay [1]; 27.4 µM in [2]; 48.7 µM in assay [3]; 53.9 µM in assay [5]; 62.7 µM in assay [6]; 27.3 µM in assay [7]. Also, the TGI in assay [8] was 31 µM; in [9], greater than 100 µM; in assay [10], 43 µM; in [12], 36.1 µM; in assay [14], 29.4 µM; in [15], 36.4 µM.

Take `Nc1ccccc1CCCC(=O)O`: the TGI in assay [1], in assay [2], in assay [16], in [3], in assay [4] and in assay [5] was greater than 100 µM throughout. The TGI in assay [6], in [7], in assay [8], in [9], in assay [10] and in [11] was greater than 100 µM each time. Besides, the TGI in [12], in assay [13], in [14] and in assay [15] was greater than 100 µM in each case.

As to `Cc1ccc(CC(=O)Nc2ccc(NC(=O)/C=C/NC(=O)/C=C/c3ccc(-c4ccccc4)cc3)cc2C(=O)c2ccccc2)cc1`, the TGI in [1] stood at 7.3 µM; in [16], 1.61 µM; in [3], 3.67 µM; in [4] it was 4.15 µM; in assay [5], 8.84 µM; in [6], 4.36 µM. For the same compound, the TGI in assay [7] was 11.5 µM; in assay [8], 3.05 µM; in assay [9], 20.3 µM; in assay [10] it was 4.71 µM; in [11], 3.11 µM; in assay [12], greater than 100 µM. The TGI in assay [13] amounted to 3.48 µM; in [14] it was 4.32 µM; in assay [15], 9.46 µM.

In the case of `COCc1nc2c(OC)cc(-c3nc4nc(N5CCN(C)CC5)ccc4[nH]3)c(OC)c2[nH]1`, the TGI was 42.4 µM in assay [1]; greater than 100 µM in assay [2]; greater than 100 µM in assay [16]; greater than 100 µM in assay [4]; 75.9 µM in assay [5]; greater than 100 µM in [6]. Moreover, the TGI was 44.2 µM in assay [7]; greater than 100 µM in assay [8]; greater than 100 µM in [9]; 61 µM in assay [10]; greater than 100 µM in assay [11]; greater than 100 µM in [12]. Besides, the TGI in assay [13] was greater than 100 µM; in assay [14], 83 µM; in assay [15], greater than 100 µM.

For `Cn1c2ccccc2c2c(-c3ccccc3)[n+]3ccccc3nc21`, the TGI in [1] was 34.4 µM; in assay [2], 60.3 µM; in assay [3], greater than 100 µM; in assay [4], 68 µM; in assay [5], 99.8 µM; in assay [6], greater than 100 µM. Also, the TGI in [7] was 41.6 µM; in assay [8] it was greater than 100 µM; in assay [9], greater than 100 µM; in assay [10] it was 36.9 µM; in assay [11], 54.7 µM; in assay [12], greater than 100 µM. Also, the results for the TGI in [13], in assay [14] and in assay [15] were greater than 100 µM, 57.7 µM and 38.8 µM, respectively.

For `COC(=O)CCC(=O)CC(=O)C1=NS(=O)(=O)c2nc(S(N)(=O)=O)c(Cl)cc2N1`, the TGI in [1], in assay [2], in assay [16], in [3], in assay [4] and in assay [5] was greater than 100 µM throughout. The TGI in assay [6], in assay [7], in [8], in assay [9], in assay [10] and in assay [14] was greater than 100 µM throughout. The TGI in [15] is greater than 100 µM.

For `O=c1[nH]c(Nc2ccc(F)c(Cl)c2)nc2nc[nH]c12`, the TGI in assay [1], in assay [16], in [3], in assay [4], in assay [5] and in [6] was greater than 100 µM in each case. In addition, the TGI in [7], in [8], in [9], in [10], in [11] and in assay [12] was greater than 100 µM in each case. Besides, the TGI in assay [13], in assay [14] and in assay [15] was greater than 100 µM each time.

Consider `C[n+]1c2ccccc2c(CNc2ccc(S(=O)(=O)N=C(N)N)cc2)c2ccccc21`, for which the TGI in assay [1] is 28 µM; in [16], 39.2 µM; in assay [3], 17 µM; in assay [4], 40 µM; in assay [5], 7.16 µM; in [6], greater than 100 µM. Also, the TGI is 63.1 µM in [7]; 23.4 µM in assay [8]; 49.8 µM in assay [9]; 41.3 µM in [10]; 48.7 µM in assay [14]; greater than 100 µM in assay [15].

As to `CC(C)(C)NCc1cc(Nc2ccnc3cc(Cl)ccc23)cc(-c2ccc(Cl)cc2)c1O`, the TGI in [1] came to 4 µM; in assay [2], 4.97 µM; in [16], 3.82 µM; in [3], 3.28 µM; in [4] it was 6.38 µM; in [5], 5.77 µM. Besides, the TGI is 16.9 µM in assay [6]; 3.28 µM in assay [7]; 6.23 µM in assay [8]; 4.42 µM in assay [9]; 4.11 µM in [10]; 15 µM in assay [12]. For the same compound, the TGI in [13] stood at 8.22 µM; in [14] it was 8.75 µM; in assay [15], 16.2 µM.

Turning to `COCO[C@@H]1C[C@H]2C(O)Nc3ccccc3C(=O)N2C1` (stereo partly specified), the TGI in assay [1], in assay [2], in assay [16], in assay [3], in assay [4] and in assay [5] was greater than 100 µM throughout. The TGI in [6], in assay [8], in [9], in assay [10], in assay [12] and in assay [13] was greater than 100 µM each time. Besides, the TGI in [14] and in assay [15] was greater than 100 µM each time.

As for `CC(C)=CC1C(COC(=O)c2cc3c(cc2Cl)OCO3)C1(C)C` (stereo unspecified), the TGI in assay [1] was greater than 100 µM; in [2] it was 78.3 µM; in assay [4], greater than 100 µM; in [5], greater than 100 µM; in assay [7] it was 41.6 µM; in assay [8], greater than 100 µM. The TGI in assay [9] is greater than 100 µM; in assay [10] it was greater than 100 µM; in [11], 81.8 µM; in [12], greater than 100 µM; in assay [13], greater than 100 µM; in [14], 65.1 µM. Also, the TGI in [15] is 65.8 µM.

With `CC1=NN(c2cccc(Cl)c2)C2(SCC(=O)N2c2nc3ccccc3s2)/C1=C\c1ccc(Cl)cc1` (stereo unspecified), the TGI in assay [1] is 43.5 µM; in [2], 15.9 µM; in assay [16] it was 27.5 µM; in [3], 89.6 µM; in assay [4], 35.3 µM; in assay [5], 3.31 µM. Further, the TGI in assay [6] came out at 47.3 µM; in assay [8], 42.7 µM; in assay [9], 42.7 µM; in assay [10], 63.9 µM; in [12], 39.2 µM; in assay [13] it was 31.1 µM. Further, the TGI in assay [14] was found to be 37.2 µM; in assay [15], 46.2 µM.
